The numbers were not newly measured in patent publication US20120282337A1, “Modified Release Formulation” (BOEHRINGER INGELHEIM INTERNATIONAL GMBH, priority 2006, published 2012), which cites them from elsewhere.

Where a name gives a salt, the structure may show the parent alone.

Assay in data set [1]: not given
The source holds these as a separate data set.

The conditions of data set [2]: in vivo.
Data set [3] deals with dopamine D2 receptor (Homo sapiens, UniProt P14416).
dopamine D2 receptor, sequence (P14416 whole entry, species assumed): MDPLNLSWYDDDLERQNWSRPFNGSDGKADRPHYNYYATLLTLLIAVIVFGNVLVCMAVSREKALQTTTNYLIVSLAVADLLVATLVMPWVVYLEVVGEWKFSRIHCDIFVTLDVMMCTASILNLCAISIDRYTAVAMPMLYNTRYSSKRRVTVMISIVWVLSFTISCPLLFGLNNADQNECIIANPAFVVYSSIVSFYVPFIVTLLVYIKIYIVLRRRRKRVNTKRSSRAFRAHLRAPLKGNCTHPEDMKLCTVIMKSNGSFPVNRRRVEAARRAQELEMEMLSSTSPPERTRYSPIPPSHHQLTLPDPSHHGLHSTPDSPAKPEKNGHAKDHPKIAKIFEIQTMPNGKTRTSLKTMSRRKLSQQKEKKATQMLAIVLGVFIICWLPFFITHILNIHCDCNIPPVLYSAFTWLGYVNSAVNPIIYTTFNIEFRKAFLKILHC

As for `CCCN[C@H]1CCc2nc(N)sc2C1` [Pramipexole dihydrochloride monohydrate, pramipexole dihydrochloride monohydrate], the “solubility in buffer media” value (between pH 2 and pH 7.4) is reported as “above 10 mg/ml”. The Water solubility result (water) is reported as “more than 20 mg/ml”.

For `CCCN[C@H]1CCc2nc(N)sc2C1` [Pramipexole, (S)-2-Amino-4,5,6,7-tetrahydro-6-(propylamino)benzothiazole], the stability in solution entry in data set [1] (in solution) is “light sensitive”. In addition, the “stability in the solid state” value in data set [1] (solid state) is “very stable”. Further, the kinetics entry in data set [2] is given as “linear kinetics”. In addition, in data set [3], the “agonist type at dopamine D2 receptor” value is recorded as “full agonist”.
